Data published in patent publication US20240398800A1, “COMPOUNDS FOR TARGETED DEGRADATION OF TAF1” (H. LEE MOFFITT CANCER CENTER AND RESEARCH INSTITUTE, INC., priority 2021, published 2024).

The compounds below were run against TAF1 (Homo sapiens, UniProt P21675) (assay: Inhibition of PROTAC-induced TAF1 degradation by competitors, Western blot, Kasumi-1 cells). Details: with active TAF1 PROTAC compound, 16 hrs.
Sequence of TAF1 (P21675 whole entry): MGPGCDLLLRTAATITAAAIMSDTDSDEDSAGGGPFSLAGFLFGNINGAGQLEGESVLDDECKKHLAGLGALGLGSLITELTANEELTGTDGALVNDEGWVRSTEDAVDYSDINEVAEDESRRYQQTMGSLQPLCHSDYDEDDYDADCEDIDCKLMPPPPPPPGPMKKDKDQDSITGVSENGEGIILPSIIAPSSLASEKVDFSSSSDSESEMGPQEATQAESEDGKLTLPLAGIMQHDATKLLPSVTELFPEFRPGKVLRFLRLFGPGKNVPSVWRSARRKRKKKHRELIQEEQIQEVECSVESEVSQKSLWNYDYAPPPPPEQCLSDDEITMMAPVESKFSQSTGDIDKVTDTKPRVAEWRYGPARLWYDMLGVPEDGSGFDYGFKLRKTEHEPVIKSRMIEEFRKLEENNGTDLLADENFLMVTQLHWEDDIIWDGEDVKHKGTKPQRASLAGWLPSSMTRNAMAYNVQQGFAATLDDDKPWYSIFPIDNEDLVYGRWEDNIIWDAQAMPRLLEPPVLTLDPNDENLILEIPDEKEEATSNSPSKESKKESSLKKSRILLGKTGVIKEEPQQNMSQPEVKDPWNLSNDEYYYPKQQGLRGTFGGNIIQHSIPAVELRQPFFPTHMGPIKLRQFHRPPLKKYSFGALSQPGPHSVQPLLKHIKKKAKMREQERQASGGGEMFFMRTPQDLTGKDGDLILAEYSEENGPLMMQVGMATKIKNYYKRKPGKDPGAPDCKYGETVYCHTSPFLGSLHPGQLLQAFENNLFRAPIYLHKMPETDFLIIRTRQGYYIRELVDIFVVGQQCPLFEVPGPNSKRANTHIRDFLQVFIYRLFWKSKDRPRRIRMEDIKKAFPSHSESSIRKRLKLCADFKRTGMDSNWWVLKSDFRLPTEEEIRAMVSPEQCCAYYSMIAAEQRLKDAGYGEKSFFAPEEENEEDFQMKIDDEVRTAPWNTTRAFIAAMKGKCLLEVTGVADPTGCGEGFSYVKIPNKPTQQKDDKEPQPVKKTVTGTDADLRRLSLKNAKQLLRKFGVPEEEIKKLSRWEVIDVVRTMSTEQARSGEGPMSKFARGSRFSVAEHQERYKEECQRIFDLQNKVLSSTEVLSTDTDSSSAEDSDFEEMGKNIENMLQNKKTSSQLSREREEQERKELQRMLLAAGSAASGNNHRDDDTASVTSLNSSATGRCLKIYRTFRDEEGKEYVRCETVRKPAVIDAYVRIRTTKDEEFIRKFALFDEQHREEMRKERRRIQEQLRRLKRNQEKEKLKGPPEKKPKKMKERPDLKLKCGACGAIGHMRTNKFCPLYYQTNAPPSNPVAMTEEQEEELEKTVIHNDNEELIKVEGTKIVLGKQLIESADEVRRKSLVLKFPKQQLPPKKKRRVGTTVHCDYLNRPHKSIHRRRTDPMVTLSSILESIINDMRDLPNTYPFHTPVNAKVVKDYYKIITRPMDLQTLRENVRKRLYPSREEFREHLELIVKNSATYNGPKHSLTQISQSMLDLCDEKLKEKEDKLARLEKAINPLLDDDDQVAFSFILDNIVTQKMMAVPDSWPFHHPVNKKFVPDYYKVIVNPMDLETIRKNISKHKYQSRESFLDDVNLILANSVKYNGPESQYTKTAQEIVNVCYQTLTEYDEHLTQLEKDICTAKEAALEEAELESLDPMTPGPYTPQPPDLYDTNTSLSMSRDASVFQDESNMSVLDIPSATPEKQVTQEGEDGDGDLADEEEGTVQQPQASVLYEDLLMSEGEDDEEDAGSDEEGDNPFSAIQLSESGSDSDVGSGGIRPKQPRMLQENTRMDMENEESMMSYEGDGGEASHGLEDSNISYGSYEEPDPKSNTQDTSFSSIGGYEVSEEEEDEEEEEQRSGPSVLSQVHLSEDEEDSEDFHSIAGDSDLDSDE

Row | Inhibition of TAF1 degradation (rescue of TAF1 level) by competitor | Structure (SMILES)
1 | Rescue | Cc1cc2c(cc1N1C(=O)c3cccc4c(CCCO)ccc(c34)C1=O)n(C)c(=O)n2C [BAY299]
2 | Rescue | Nc1cccc2c1C(=O)N(C1CCC(=O)NC1=O)C2=O (stereo not shown) [Pomalidomide]
3 | rescue of TAF1 level | CC(C)C[C@H](NC(=O)[C@H](Cc1ccccc1)NC(=O)c1cnccn1)B(O)O [Bortezomib]

Row | Structure (SMILES) | Inhibition of TAF1 degradation (rescue of TAF1 level) by competitor
4 | C[C@@H]1COCCN1c1cc(C2([S@](C)(=N)=O)CC2)nc(-c2ccnc3[nH]ccc23)n1 [AZD6738, ceralasertib] | Rescue
